{"source": "patent US20070032460A1", "about": "“Use of voacamine and related compounds in the treatment of malaria” (priority 2005, published 2007)", "key": {"[1]": {"test_system": "CQ-sensitive (D6) strain of P. falciparum", "type": "cell-based"}, "Plasmodium falciparum": {"test_system": "Plasmodium falciparum", "settings": "verapamil alone, without chloroquine; cited from earlier work"}, "[2]": {"settings": "doses of 2000 and 5000 mg/day; cited from earlier work"}, "[3]": {"settings": "chloroquine-sensitive strain of P. falciparum, in vitro, Table V, read-out: IC50 (10^−7 M) S"}, "[4]": {"settings": "Plasmodium falciparum, D6, chloroquine-sensitive strain of P. falciparum, in vitro, Table V, read-out: IC50 (10^−7 M) S"}}, "note": "Where two headings read alike, the source gives them in different places."}
{"compound": "Voacamidine [VDN]", "values": [{"measurement": "IC50", "setting": "[1]; [3]", "result": 510, "unit": "nM"}]}
{"compound": "Ervahanine", "values": [{"measurement": "IC50", "setting": "[1]; [3]", "result": 680, "unit": "nM"}]}
{"compound": "Decarbomethoxyvoacamine [DCV]", "values": [{"measurement": "IC50", "setting": "[1]; [3]", "result": 490, "unit": "nM"}]}
{"compound": "C/C=C1/CN(C)[C@H]2Cc3c([nH]c4ccccc34)C(=O)C[C@H]1[C@@H]2C(=O)OC", "note": "[VOB, Vobasine]", "values": [{"measurement": "IC50", "setting": "[1]; [4]", "result": 470, "unit": "nM"}]}
{"compound": "COc1ccc(CCN(C)CCCC(C#N)(c2ccc(OC)c(OC)c2)C(C)C)cc1OC", "note": "(centres unmarked) [verapamil]", "values": [{"measurement": "effect on malaria, drug alone", "setting": "Plasmodium falciparum", "result": "no effect"}]}
{"compound": "CC=C1CN(C)C2Cc3c([nH]c4ccccc34)C(c3cc4[nH]c5c(c4cc3OC)CCN3CC4CC(CC)C3C5(C(=O)OC)C4)CC1C2C(=O)OC", "note": "(centres unmarked) [VOA, Voacamine]", "values": [{"measurement": "IC50", "setting": "[1]; Plasmodium falciparum, D6, read-out: IC50 (10^−7 M) S, chloroquine-sensitive strain of P. falciparum, in vitro, Table V", "result": 240, "unit": "nM"}, {"measurement": "IC50", "setting": "[1]; Plasmodium falciparum, D6, read-out: IC50, single drug, S strain (D6), drug alone, Table 1, mean ± S.D., three experiments", "result": "238 ± 23.7", "unit": "nM"}, {"measurement": "IC50", "setting": "[1]; Plasmodium falciparum, D6, read-out: IC50, single drug, S strain (D6), drug alone, Table II, mean ± S.D., three experiments", "result": "298 ± 59.8", "unit": "nM"}, {"measurement": "IC50", "setting": "[1]; Plasmodium falciparum, D6, read-out: IC50 of each drug in combination VOA (1.0 μM) CQ (0.3 μM), S strain (D6), VOA/CQ ratio 10:3", "result": "56.9 ± 8.2", "unit": "nM"}, {"measurement": "IC50", "setting": "[1]; Plasmodium falciparum, D6, read-out: IC50 of each drug in combination VOA (1.0 μM) QHS (0.3 μM), S strain (D6), VOA/QHS ratio 10:3", "result": "87.2 ± 9.5", "unit": "nM"}, {"measurement": "IC50", "setting": "[1]; Plasmodium falciparum, D6, read-out: IC50 of each drug in combination VOA (2.0 μM) CQ (0.2 μM), S strain (D6), VOA/CQ ratio 10:1", "result": "114 ± 25.1", "unit": "nM"}, {"measurement": "IC50", "setting": "[1]; Plasmodium falciparum, D6, read-out: IC50 of each drug in combination VOA (2.0 μM) QHS (0.2 μM), S strain (D6), VOA/QHS ratio 10:1", "result": "114 ± 5.6", "unit": "nM"}, {"measurement": "IC50", "setting": "[1]; Plasmodium falciparum, D6, read-out: IC50 of each drug in combination VOA (3.0 μM) CQ (0.1 μM), S strain (D6), VOA/CQ ratio 30:1", "result": "223 ± 35.8", "unit": "nM"}, {"measurement": "IC50", "setting": "[1]; Plasmodium falciparum, D6, read-out: IC50 of each drug in combination VOA (3.0 μM) QHS (0.1 μM), S strain (D6), VOA/QHS ratio 30:1", "result": "240 ± 45.3", "unit": "nM"}, {"measurement": "toxicity in prior studies", "setting": "[2]", "result": "minimal toxicity"}]}
{"compound": "C[C@@H]1CC[C@H]2[C@@H](C)C(=O)O[C@@H]3O[C@@]4(C)CC[C@@H]1[C@]32OO4", "note": "[QHS, qinghaosu, reference compound]", "values": [{"measurement": "IC50", "setting": "[1]; S strain (D6), VOA/QHS ratio 10:1, read-out: IC50 of each drug in combination VOA (2.0 μM) QHS (0.2 μM)", "result": "14.6 ± 0.8", "unit": "nM"}, {"measurement": "IC50", "setting": "[1]; S strain (D6), VOA/QHS ratio 10:3, read-out: IC50 of each drug in combination VOA (1.0 μM) QHS (0.3 μM)", "result": "25.9 ± 2.5", "unit": "nM"}, {"measurement": "IC50", "setting": "[1]; S strain (D6), VOA/QHS ratio 30:1, read-out: IC50 of each drug in combination VOA (3.0 μM) QHS (0.1 μM)", "result": "9.7 ± 2.3", "unit": "nM"}, {"measurement": "IC50", "setting": "[1]; S strain (D6), drug alone, Table II, mean ± S.D., three experiments, read-out: IC50, single drug", "result": "38.3 ± 4.7", "unit": "nM"}]}
{"compound": "N6Demethylvoacamine [NDV]", "values": [{"measurement": "IC50", "setting": "[1]; [3]", "result": 470, "unit": "nM"}]}
{"compound": "Tabernamine", "values": [{"measurement": "IC50", "setting": "[1]; [3]", "result": 650, "unit": "nM"}]}
{"compound": "CCN(CC)CCCC(C)Nc1ccnc2cc(Cl)ccc12", "note": "(centres unmarked) [CQ, chloroquine, reference compound]", "values": [{"measurement": "IC50", "setting": "[1]; Plasmodium falciparum, D6, read-out: IC50, single drug", "result": "28.5 ± 3.5", "unit": "nM"}, {"measurement": "IC50", "setting": "[1]; Plasmodium falciparum, D6, read-out: IC50 of each drug in combination VOA (1.0 μM) CQ (0.3 μM)", "result": "15.9 ± 2.7", "unit": "nM"}, {"measurement": "IC50", "setting": "[1]; Plasmodium falciparum, D6, read-out: IC50 of each drug in combination VOA (2.0 μM) CQ (0.2 μM)", "result": "13.5 ± 2.9", "unit": "nM"}, {"measurement": "IC50", "setting": "[1]; Plasmodium falciparum, D6, read-out: IC50 of each drug in combination VOA (3.0 μM) CQ (0.1 μM)", "result": "8.2 ± 1.5", "unit": "nM"}]}
{"compound": "CC[C@H]1C[C@@H]2CN3CCc4c([nH]c5ccccc45)[C@](C(=O)OC)(C2)[C@H]13", "note": "[COR, Coronaridine]", "values": [{"measurement": "IC50", "setting": "[1]; [4]", "result": 500, "unit": "nM"}]}
